Laboratory results reported in US7968526B2, “Antisense oligonucleotides directed to ribonucleotide reductase R2 and uses thereof in the treatment of cancer” (Lorus Therapeutics Inc., priority 2003, dated 2011).
“Also recorded” adds a separate entry of the source.

Experiments:
[1] = test system: Hela S3 human cervix epitheloid carcinoma cells; assay: Hela S3 hydroxyurea resistant cervix carcinoma xenograft in SCID mice; format: in vivo, human cells in mice
Protocol: BxPC-3 is a gemcitabine resistant call line. […] Gemcitabine was administered intravenously every three days at a dose of 100 mg/kg. Antitumour activities were estimated by the inhibition of tumour volume, which was measured with caliper. Each point represents mean tumour volume calculated from 10 animals per experimental group. […] Hela S3 is a hydroxyurea resistant cell line. […] Hydroxyurea was administered intraperitoneally every day at a dose of 250 mg/kg for 10 days. Cisplatin was administered intravenously once a week for three weeks at a dose of 4 mg/kg. Antitumour activities were estimated by the inhibition of tumour volume, which was measured with caliper. Each point represents mean tumour volume calculated from 10 animals per experimental group. […] Cisplatin was administered intravenously once a week for three weeks at a dose of 4 mg/kg. Taxol was administered intravenously once a week for three weeks at a dose of 10 mg/kg. Antitumour activities were estimated by the inhibition of tumour volume, which was measured with caliper. Each point represents mean tumour volume calculated from 10 animals per experimental group. […] Taxol was administered i.p. once a week at a dose of 10 mg/kg. Antitumour activities were estimated by the inhibition of tumour volume (FIG. 12A), which was measured with calipers. Each point represents mean tumour volume calculated from 10 animals per experimental group. Animals were sacrificed and tumour weights taken at the end of the study (FIG. 12C). […] The effects of combined treatment were greater than either treatment alone. […] Cisplatin was administered intravenously once a week for four weeks at a dose of 4 mg/kg. Taxol was administered intravenously once a week for four weeks at a dose of 20 mg/kg. Antitumour activities were estimated by the inhibition of tumour volume, which was measured with caliper. Each point represents mean tumour volume calculated from 9-10 animals per experimental group. […] Cisplatin was administered intravenously once a week for four weeks at a dose of 4 mg/kg. Antitumour activities were estimated by the inhibition of tumour volume, which was measured with caliper. Each point represents mean tumour volume calculated from 10 animals per experimental group. At the end of the study the animals were sacrificed and tumours weighed. […] Taxol was administered i.p. once a week at a dose of 10 mg/kg. Anti-tumour activity was estimated by the inhibition of tumour volume, which was measured with caliper. Each point represents mean tumour volume calculated from 10 animals per experimental group. In addition animals were sacrificed and tumour weights taken at the end of the study. […] CPT-11 was administered i.p. for 5 days at a dose of 20 mg/kg/day. Antitumour activities were estimated by the inhibition of tumour volume, which was measured with caliper. Each point represents mean tumour volume calculated from 10 animals per experimental group. Tumour weights were measured after animals were sacrificed at the end of the treatment. These cells are not resistant to CPT-11 which was used as a positive control.

[2] = test system: MDA-MB-231 human breast cancer cells; assay: MDA-MB-231 breast tumour xenograft in CD-1 nude mice, combination with taxol or doxorubicin (1.7); format: in vivo, human cells in mice; settings: MDA-MB-231 (breast), CD-1; SEQ ID NO:1 10 mg/kg i.v. every other day; Taxol 10 mg/kg i.v. weekly; doxorubicin 5 mg/kg i.v. weekly
Protocol: (§1) After 52 days the mice were sacrificed and the tumours weighed. […] Mitoxantrone was administered intravenously once at the beginning of the treatments at a dose of 2 mg/kg (FIG. 4A) or once a week for four weeks at a reduced dose of 0.8 mg/kg (FIG. 4B). All treatments were stopped at day 50 (FIG. 4A) or 48 (FIG. 4B), respectively. […] Mitoxantrone was administered intravenously once at the beginning of the treatments at a dose of 2 mg/kg (FIG. 5A) or once a week for four weeks at a reduced dose of 0.8 mg/kg (FIG. 5B). All treatments were stopped at day 42 (FIG. 5A) or 38 (FIG. 5B), respectively. […] A2058 is a metastatic melanoma cell line. […] All treatments were stopped at day 24. […] Taxol was administered intravenously once a week at a dose of 10 mg/kg for three (FIG. 7A) or four weeks (FIG. 7C). Doxorubicin was administered intravenously once a week at a dose of 5 mg/kg for first three weeks (FIG. 7A) or for two weeks (FIG. 7C). All treatments were stopped at day 33 (FIG. 7A) or at day 26 (FIG. 7C), respectively. […] In FIG. 7C, antitumour activities were estimated by the inhibition of tumour volume, which was measured with calipers. Each point represents mean tumour volume calculated from 10 animals per experimental group. […] Taxol was administered intravenously once a week for first three weeks and intraperitoneally once a week for next two weeks at a dose of 10 mg/kg. Cisplatin was administered intravenously once a week for first three weeks and intraperitoneally once a week for next two weeks at a dose of 4 mg/kg. All treatments were stopped at day 40. Antitumour activities were estimated by the inhibition of tumour volume, which was measured with caliper. Each point represents mean tumour volume calculated from 9 animals per experimental group.

[3] = test system: SK-OV-3 human ovary adenocarcinoma cells; assay: SK-OV-3 ovary tumour xenograft in CD-1 nude mice, combination with taxol or cisplatin (1.8); format: in vivo, human cells in mice; settings: SK-OV-3 (ovary), CD-1; SEQ ID NO:1 10 mg/kg i.v. every other day 17 times; Taxol 10 mg/kg weekly; Cisplatin 4 mg/kg weekly
Protocol: as §1

[4] = test system: MDA-CDDP-S4 human in vivo-selected Cisplatin-resistant breast adenocarcinoma cells; assay: MDA-CDDP-S4 Cisplatin-resistant breast adenocarcinoma, fat pad, SCID mice (2.3); parameters: species or system human cells in mice; settings: MDA-CDDP-S4 (breast), Cisplatin resistant, SCID; SEQ ID NO:1 10 mg/kg i.v. every other day 9 times; Taxol 10 mg/kg, Cisplatin 4 mg/kg i.v. weekly x3
Protocol: (§2) BxPC-3 is a gemcitabine resistant call line. […] Gemcitabine was administered intravenously every three days at a dose of 100 mg/kg. Antitumour activities were estimated by the inhibition of tumour volume, which was measured with caliper. Each point represents mean tumour volume calculated from 10 animals per experimental group. […] Hela S3 is a hydroxyurea resistant cell line. […] Hydroxyurea was administered intraperitoneally every day at a dose of 250 mg/kg for 10 days. Cisplatin was administered intravenously once a week for three weeks at a dose of 4 mg/kg. Antitumour activities were estimated by the inhibition of tumour volume, which was measured with caliper. Each point represents mean tumour volume calculated from 10 animals per experimental group. […] Cisplatin was administered intravenously once a week for three weeks at a dose of 4 mg/kg. Taxol was administered intravenously once a week for three weeks at a dose of 10 mg/kg. Antitumour activities were estimated by the inhibition of tumour volume, which was measured with caliper. Each point represents mean tumour volume calculated from 10 animals per experimental group. […] Taxol was administered i.p. once a week at a dose of 10 mg/kg. Antitumour activities were estimated by the inhibition of tumour volume (FIG. 12A), which was measured with calipers. Each point represents mean tumour volume calculated from 10 animals per experimental group. Animals were sacrificed and tumour weights taken at the end of the study (FIG. 12C). […] Cisplatin was administered intravenously once a week for four weeks at a dose of 4 mg/kg. Taxol was administered intravenously once a week for four weeks at a dose of 20 mg/kg. Antitumour activities were estimated by the inhibition of tumour volume, which was measured with caliper. Each point represents mean tumour volume calculated from 9-10 animals per experimental group. […] Cisplatin was administered intravenously once a week for four weeks at a dose of 4 mg/kg. Antitumour activities were estimated by the inhibition of tumour volume, which was measured with caliper. Each point represents mean tumour volume calculated from 10 animals per experimental group. At the end of the study the animals were sacrificed and tumours weighed. […] Taxol was administered i.p. once a week at a dose of 10 mg/kg. Anti-tumour activity was estimated by the inhibition of tumour volume, which was measured with caliper. Each point represents mean tumour volume calculated from 10 animals per experimental group. In addition animals were sacrificed and tumour weights taken at the end of the study. […] CPT-11 was administered i.p. for 5 days at a dose of 20 mg/kg/day. Antitumour activities were estimated by the inhibition of tumour volume, which was measured with caliper. Each point represents mean tumour volume calculated from 10 animals per experimental group. Tumour weights were measured after animals were sacrificed at the end of the treatment. These cells are not resistant to CPT-11 which was used as a positive control.

[5] = test system: MDA-CDDP-S4 human in vivo-selected Cisplatin-resistant breast adenocarcinoma cells; assay: MDA-CDDP-S4 Cisplatin-resistant breast adenocarcinoma, fat pad, CB-17 SCID mice, combination with Taxol (2.4); parameters: species or system human cells in mice; settings: MDA-CDDP-S4 (breast), Cisplatin resistant, SCID, SEQ ID NO:1 10 mg/kg i.v. every other day, Taxol 10 mg/kg i.p. weekly
Protocol: as §2

[6] = test system: MDA-MB435-To.1 human Taxol-resistant breast adenocarcinoma cells; assay: MDA-MB435-To.1 Taxol-resistant breast adenocarcinoma, fat pad, SCID mice (2.5); format: in vivo, human cells in mice
Protocol: as §2

[7] = test system: Human taxol-resistant promyelocytic leukaemia cells (HL-60); assay: HL-60 taxol-resistant promyelocytic leukaemia tumour in SCID mice (2.7); format: in vivo, human cells in mice; settings: SEQ ID NO:1 10 mg/kg i.v. every other day
Protocol: BxPC-3 is a gemcitabine resistant call line. […] Gemcitabine was administered intravenously every three days at a dose of 100 mg/kg. Antitumour activities were estimated by the inhibition of tumour volume, which was measured with caliper. Each point represents mean tumour volume calculated from 10 animals per experimental group. […] Hela S3 is a hydroxyurea resistant cell line. […] Hydroxyurea was administered intraperitoneally every day at a dose of 250 mg/kg for 10 days. Cisplatin was administered intravenously once a week for three weeks at a dose of 4 mg/kg. Antitumour activities were estimated by the inhibition of tumour volume, which was measured with caliper. Each point represents mean tumour volume calculated from 10 animals per experimental group. […] Cisplatin was administered intravenously once a week for three weeks at a dose of 4 mg/kg. Taxol was administered intravenously once a week for three weeks at a dose of 10 mg/kg. Antitumour activities were estimated by the inhibition of tumour volume, which was measured with caliper. Each point represents mean tumour volume calculated from 10 animals per experimental group. […] Taxol was administered i.p. once a week at a dose of 10 mg/kg. Antitumour activities were estimated by the inhibition of tumour volume (FIG. 12A), which was measured with calipers. Each point represents mean tumour volume calculated from 10 animals per experimental group. Animals were sacrificed and tumour weights taken at the end of the study (FIG. 12C). […] Cisplatin was administered intravenously once a week for four weeks at a dose of 4 mg/kg. Taxol was administered intravenously once a week for four weeks at a dose of 20 mg/kg. Antitumour activities were estimated by the inhibition of tumour volume, which was measured with caliper. Each point represents mean tumour volume calculated from 9-10 animals per experimental group. […] Cisplatin was administered intravenously once a week for four weeks at a dose of 4 mg/kg. Antitumour activities were estimated by the inhibition of tumour volume, which was measured with caliper. Each point represents mean tumour volume calculated from 10 animals per experimental group. At the end of the study the animals were sacrificed and tumours weighed. […] Taxol was administered i.p. once a week at a dose of 10 mg/kg. Anti-tumour activity was estimated by the inhibition of tumour volume, which was measured with caliper. Each point represents mean tumour volume calculated from 10 animals per experimental group. […] Antitumour activities were estimated by the inhibition of tumour volume, which was measured with caliper. Each point represents mean tumour volume calculated from 10 animals per experimental group. Tumour weights were measured after animals were sacrificed at the end of the treatment. […]

[8] = test system: Caki-1 human renal cancer cells; assay: Caki-1 renal tumour xenograft, combination with 5-FU or vinblastin (1.3); format: in vivo, human cells in mice; settings: Caki (renal), CD-1 mouse as printed; SEQ ID NO:1 10 mg/kg i.v. every other day; 5-FU 13 mg/kg/day i.p.; vinblastin 0.6 mg/kg/week i.p.
Excerpt: All treatments were stopped at day 22. […] All treatments were stopped at day 32. […] All treatments were stopped at day 36.

[9] = test system: A498 human kidney cancer cells; assay: A498 kidney tumour xenograft in SCID mice, controls and chemotherapeutics (Example 7); format: in vivo, human cells in mice; settings: oligonucleotides 10 mg/kg/2 days i.v., 5-FU 13 mg/kg/day×5, vinblastine 1 mg/kg/week, gemcitabine 100 mg/kg/week
Excerpt: CD-1 athymic female nude mice, BALB/c nu/nu nude mice, SCID, and SCID beige mice were purchased from Charles River Laboratories (Montreal, Canada) and experiments were typically initiated when the mice were 6-7 weeks old. […] Each experimental group typically contained 10 mice. After the size of tumour reached a mean tumour volume of 50-100 mm^3, treatment was initiated. […] Anti-tumour activity was estimated by the measurement of tumour volume with a calliper at two-three day intervals. Tumour volume was calculated by a formula L×W×H/2, where L indicates length, W indicates width and H indicates height. Within 24 hours after the last treatment, the animals were sacrificed and tumour and body weights were measured. Results of statistical analyses of the data are presented as P values in the figure legends.
Three additional treatment groups received: 5-FU (13 mg/kg/day×5), vinblastine (1 mg/kg/week) and gemcitabine (100 mg/kg/week). […] Caliper measurements at 1-week intervals were used to calculate tumour volumes. Each point in FIG. 28C represents mean tumour volume calculated from 10 animals per experimental group (with the exception of SEQ ID NO: 1 which was 8 animals). […] After 54 days the mice were sacrificed and the A498 tumours weighed. Each bar represents the mean tumour weight and standard error calculated for each treatment group.

NC(=O)NO [Hydroxyurea (HU), Hydroxyurea, reference compound]
Tumour weight as % of saline control ([1]; Hela S3 (cervix), hydroxyurea resistant, SCID, SEQ ID NO:1 10 mg/kg i.v. every other day 6 times, Hydroxyurea 250 mg/kg i.p. daily 10 days, Cisplatin 4 mg/kg i.v. weekly x3): 92%
Antitumour effect (tumour volume, FIG. 10) ([1]; Hela S3 hydroxyurea resistant, SCID mice, SEQ ID NO:1 10 mg/kg i.v. every other day, Hydroxyurea 250 mg/kg i.p. daily, Cisplatin 4 mg/kg i.v. weekly): ineffective against Hydroxyurea-resistant tumour

CC(=O)O[C@H]1C(=O)[C@@]2(C)[C@H]([C@H](OC(=O)c3ccccc3)[C@]3(O)C[C@H](OC(=O)[C@H](O)[C@@H](NC(=O)c4ccccc4)c4ccccc4)C(C)=C1C3(C)C)[C@]1(OC(C)=O)CO[C@@H]1C[C@@H]2O [Taxol, Paclitaxel, reference compound]
Tumour weight as % of saline control [2]: 58%
tumour volume data as percentage of saline control [3]: 49%
Tumour weight as % of saline control [4]: 32%
Tumour weight as % of saline control ([5]; first of two printed values (study and repeat)): 26%
Tumour weight as % of saline control ([5]; second of two printed values (study and repeat)): 61%
Tumour weight as % of saline control ([6]; MDA-MB435-To.1 (breast), Taxol resistant, SCID, SEQ ID NO:1 10 mg/kg i.v. every other day 15 times, Taxol 20 mg/kg, Cisplatin 4 mg/kg i.v. weekly x4): 109%
Antitumour effect (FIG. 13) ([6]; MDA-MB435-To.1 Taxol-resistant, SCID mice, SEQ ID NO:1 10 mg/kg i.v. every other day, Cisplatin 4 mg/kg, Taxol 20 mg/kg i.v. weekly): ineffective against Taxol-resistant tumour
Tumour weight as % of saline control ([7]; HL-60 (leukemia), Taxol resistant, SCID, Taxol 10 mg/kg i.p. weekly): 119%
Antitumour effect (FIG. 15) ([7]; HL-60 taxol-resistant, SCID mice, taxol 10 mg/kg i.p. weekly): no effect on tumour growth or weight

CC[C@]1(O)C[C@@H]2CN(CCc3c([nH]c4ccccc34)[C@@](C(=O)OC)(c3cc4c(cc3OC)N(C)[C@H]3[C@@](O)(C(=O)OC)[C@H](OC(C)=O)[C@]5(CC)C=CCN6CC[C@]43[C@@H]65)C2)C1 [Vinblastine, vinblastine]
Tumour weight as % of saline control [8]: 26%
Effect on tumour growth (volume and weight) [9]: ineffective in stabilization of the tumours; also recorded: at best, a delay in the rate of tumour growth
